Measured values: patent US5112741A, “Acetaldehyde trapping system” (Enzymatics, Inc., priority 1988, dated 1992)
Blank lines part the entries; values can stand above or below the compound they belong to.

Columns and labels:
alcohol dehydrogenase = experiment: Relative equilibrium constants of trapping agents from NADH production by alcohol dehydrogenase after 10 minutes; format: biochemical; settings: 5 mM trapping agent, 200 mM Glycine pH 9.5, 10 mM NAD, 5 mM ethanol, 125 IU ADH
Description: The relative equilibrium constants for trapping agents are listed below in Table 1. […] The reaction formulation was as follows: […] 5 mM ethanol 5 mM trapping agent 125 IU ADH

ADH = experiment: Enzymatic oxidation of 65 mM ethanol by ADH/NAD in presence of trapping mixture; format: biochemical; settings: 650 mM, Tris without alpha-effect amine, or carboxymethoxyamine and borate buffer without primary amine
Description: To a reaction mixture containing 5 IU ADH, 100 mM NAD, pH 9.5 and 65 mM ethanol was added a trapping mixture containing:
50 mM Carboxymethoxyamine, pH 10
A trapping mixture containing:
150 mM Carboxymethoxyamine, pH 10
was substituted for the trap in Example 1.
100 mM Hexanediamine, pH 10
150 mM Allylhydroxylamine, pH 9.8
100 mM Nitrobenzylhydroxylamine, pH 10

[1] = tested on: alcohol dehydrogenase (ADH); settings: cited from earlier work
[2] = tested on: alcohol dehydrogenase (ADH); settings: background statement; cited from earlier work
[3] = Trapping of aldehyde/ketone oxidation product and alcohol conversion in enzymatic determination of alcohol (general statements); format: biochemical; settings: diamine alone, without alpha-effect amine
Source text: For reasons which are not well understood at the present time, the use of a combination of alpha-effect and primary amines according to the present invention dramatically increases the aldehyde/ketone trapping capacity of the amine trap, as compared to prior art amine traps consisting essentially of primary amine or of alpha-effect amine. Increases in trapping capacity, as measured by effective inactivation of aldehyde/ketone oxidation product in the reaction mixture, of up to about 100-fold over known prior art traps are typical.
With proper selection of amines, typical substrate conversions of about 100% are obtainable without dilution of the sample alcohol concentrations up to about 150 mM, thus permitting accurate and reliable end-point determinations. Such conversions are obtained by selection of amines for trap efficiency so that accumulation of active oxidation product is avoided. This ensures that a favorable reaction equilibrium is established, and that the catalyzing enzyme is not deactivated by oxidation product; the use of amines in the practice of the invention which tend to deactivate the catalyzing enzyme should, of course, be avoided.

Compound: C=CCON [Allylhydroxylamine]
RELATIVE EQUILIBRIUM CONSTANT (alcohol dehydrogenase): 25.3

Compound: NC(CO)(CO)CO [Tris, Tris hydroxyl methylamine methane]
RELATIVE EQUILIBRIUM CONSTANT (alcohol dehydrogenase): .2 | Alcohol oxidation, single amine type (ADH): did not result in complete alcohol oxidation | Conversion of the alcohol ([1]; ADH confined by semi-permeable membrane, continuous flow): about 18% | Capability of trapping high acetaldehyde concentrations ([1]; Tris by itself, acetaldehyde on the order of 85 mM): not capable by itself of reacting with and removing such high concentrations of acetaldehyde

Compound: CC=O [acetaldehyde]
Acetaldehyde concentration that inhibits alcohol dehydrogenase [2]: greater than 1 mM

Compound: NOCC(=O)O [Carboxymethoxyamine]
RELATIVE EQUILIBRIUM CONSTANT (alcohol dehydrogenase): 38.6 | Alcohol oxidation, single amine type (ADH): did not result in the complete oxidation of the alcohol

Compound: NCCCCCCN [1,6-hexanediamine]
Performance as sole trapping agent [3]: very satisfactory results are obtained

The remaining lines, values ahead:

RELATIVE EQUILIBRIUM CONSTANT (alcohol dehydrogenase): 11.8
Compound: CCON [Ethylhydroxylamine]

RELATIVE EQUILIBRIUM CONSTANT (alcohol dehydrogenase): 202.0
Compound: Nitrobenzylhydroxylamine

RELATIVE EQUILIBRIUM CONSTANT (alcohol dehydrogenase): 40.9
Compound: NOCc1ccccc1 [O-Benzylhydroxylamine]

RELATIVE EQUILIBRIUM CONSTANT (alcohol dehydrogenase): 11.7
Compound: CON [Methoxyamine]
